In ChEMBL document CHEMBL4130580, “Bibenzyl-Based Meroterpenoid Enantiomers from the Chinese Liverwort Radula sumatrana” (J Nat Prod, 2017):

How the values were obtained:
PC-3 = assay: Cytotoxicity against human PC3 cells assessed as reduction in cell viability by MTT assay
MCF7 = assay: Cytotoxicity against human MCF7 cells assessed as reduction in cell viability by MTT assay
SMMC-7721 = assay: Cytotoxicity against human SMMC7721 cells assessed as reduction in cell viability by MTT assay

| SMILES | IC50 (PC-3) | IC50 (MCF7) | IC50 (SMMC-7721) |
| --- | --- | --- | --- |
| CC12CCC3C1C(c1c(CCc4ccccc4)cc(O)cc1O2)C3(C)C (centres undefined) | 19.6 µM | 14 µM | 14.5 µM |
| C=C(C)C1CCC2(C)Oc3cc(O)cc(CCc4ccccc4)c3C1C2O (racemic) | > 40 µM | 38.2 µM | > 40 µM |
| CC12CCc3cc(CCc4ccccc4)cc(O)c3C1C2 (racemic) | > 40 µM | 24.7 µM | 34.2 µM |
